Numbered stars: 1 amine (or outer) side, 2 acyl side, 3 side chain; on linkers, the order of the positions; unused ones are H or OH. Square brackets hold non-standard residues; d marks the D form. Primed or numbered codes have the meaning given here. Side chains are listed from the residue outwards. Ends that are not written are not given here. * marks the point of attachment. C18 diacid = O=C(O)CCCCCCCCCCCCCCCCC(=O)*; C16 diacid = O=C(O)CCCCCCCCCCCCCCC(=O)*; γGlu = O=C(O)[C@H](CCC(=O)[*:2])N[*:1]; Stearoyl = CCCCCCCCCCCCCCCCCC(=O)*; Palmitoyl = CCCCCCCCCCCCCCCC(=O)*; Nle = CCCC[C@H](N)C(=O)O; PEG2′ = not defined here; Aib = CC(C)(N)C(=O)O
system: human hepatic stellate cells (LX-2); experiment: In vitro inhibition of hepatic fibrosis: expression of activation marker α-SMA in LX-2 cells (Western Blot, β-actin internal reference); format: cell-based; details: 10.0 μM, 48 hours, negative control (PBS) = 100%
Method: Hepatic stellate cell strain LX-2 was selected to study and observe the effect of different doses of test substances on the expression of LX-2 cell activation marker α-SMA. Hepatic stellate cell LX-2 was laid on 35 mm cell culture plate, cultured with DMEM (high glucose)+10% FBS+1% double-antibody culture medium (Thermo Fisher), placed overnight when the cells grew to 70% convergence at 37° C. and under the condition of 5% CO2, and treated with the above GLP-1R/GCGR dual target agonist polypeptides 1-48 (dissolved in PBS) for 48 hours the next day morning to extract cell protein, carry out Western Blot, and take β-actin as internal reference and analyze the expression quantities of α-SMA and β-actin by a gray level of Image J 1.50i. PBS with the same volume as that in experimental group was added in negative control. […] The integrating gray level of α-SMA/β-actin in the negative control group was 100% to analyze the in vitro inhibition activity of hepatic fibrosis of tested polypeptide.

Compared with “His-(D-Ser)-Gln-Gly-Thr-Phe-Thr-Ser-Asp-Lys(PEG2-PEG2-CO(CH2)14CH3)-Ser-Lys-Tyr-Leu-Asp-Aib-Arg-Arg-Ala-Gln-Asp-Phe-Val-Gln-Trp-Leu-Met-Asn-Thr-Gly-Gly-Pro-Ser-Ser-Gly-Ala-Pro-Pro-Pro-Ser-NH2 (H[dS]QGTFTSDK([PEG2′-PEG2′-Palmitoyl])SKYLD[Aib]RRAQDFVQWLMNTGGPSSGAPPPS-NH2) [Compound 31]”, “His-(D-Ser)-Gln-Gly-Thr-Phe-Thr-Ser-Asp-Lys(PEG2-PEG2-CO(CH2)14CH3)-Ser-Lys-Tyr-Leu-Asp-Aib-Arg-Arg-Ala-Gln-Asp-Phe-Val-Gln-Trp-Leu-Nle-Asn-Thr-Gly-Gly-Pro-Ser-Ser-Gly-Ala-Pro-Pro-Pro-Ser-NH2 (H[dS]QGTFTSDK([PEG2′-PEG2′-Palmitoyl])SKYLD[Aib]RRAQDFVQWL[Nle]NTGGPSSGAPPPS-NH2) [Compound 45]” is lower in “Relative expression of α-SMA (α-SMA/β-actin, %)” value: 36.89% for the first, 32.22% for the second.

Compared with “His-(D-Ser)-Gln-Gly-Thr-Phe-Thr-Ser-Asp-Lys(PEG2-PEG2-CO(CH2)16CH3)-Ser-Lys-Tyr-Leu-Asp-Aib-Arg-Arg-Ala-Gln-Asp-Phe-Val-Gln-Trp-Leu-Met-Asn-Thr-Gly-Gly-Pro-Ser-Ser-Gly-Ala-Pro-Pro-Pro-Ser-NH2 (H[dS]QGTFTSDK([PEG2′-PEG2′-Stearoyl])SKYLD[Aib]RRAQDFVQWLMNTGGPSSGAPPPS-NH2) [Compound 32]”, “His-(D-Ser)-Gln-Gly-Thr-Phe-Thr-Ser-Asp-Lys(PEG2-PEG2-CO(CH2)16CO2H)-Ser-Lys-Tyr-Leu-Asp-Aib-Arg-Arg-Ala-Gln-Asp-Phe-Val-Gln-Trp-Leu-Met-Asn-Thr-Gly-Gly-Pro-Ser-Ser-Gly-Ala-Pro-Pro-Pro-Ser-NH2 (H[dS]QGTFTSDK([PEG2′-PEG2′-C18 diacid])SKYLD[Aib]RRAQDFVQWLMNTGGPSSGAPPPS-NH2) [Compound 30]” is higher in “Relative expression of α-SMA (α-SMA/β-actin, %)” value: 37.14% for the first, 55.53% for the second.

First: His-(D-Ser)-Gln-Gly-Thr-Phe-Thr-Ser-Asp-Lys(PEG2-PEG2-γGlu-CO(CH2)14CH3)-Ser-Lys-Tyr-Leu-Asp-Aib-Arg-Arg-Ala-Gln-Asp-Phe-Val-Gln-Trp-Leu-Leu-Asn-Thr-Gly-Gly-Pro-Ser-Ser-Gly-Ala-Pro-Pro-Pro-Ser-NH2 (H[dS]QGTFTSDK([PEG2′-PEG2′-γGlu-Palmitoyl])SKYLD[Aib]RRAQDFVQWLLNTGGPSSGAPPPS-NH2) [Compound 43]
Second: His-(D-Ser)-Gln-Gly-Thr-Phe-Thr-Ser-Asp-Lys(PEG2-PEG2-γGlu-CO(CH2)16CO2H)-Ser-Lys-Tyr-Leu-Asp-Aib-Arg-Arg-Ala-Gln-Asp-Phe-Val-Gln-Trp-Leu-Leu-Asn-Thr-Gly-Gly-Pro-Ser-Ser-Gly-Ala-Pro-Pro-Pro-Ser-NH2 (H[dS]QGTFTSDK([PEG2′-PEG2′-γGlu-C18 diacid])SKYLD[Aib]RRAQDFVQWLLNTGGPSSGAPPPS-NH2) [Compound 47]
The “Relative expression of α-SMA (α-SMA/β-actin, %)” value of the first is higher: 42.34% for the first, 40.36% for the second.

First: His-(D-Ser)-Gln-Gly-Thr-Phe-Thr-Ser-Asp-Lys(PEG2-PEG2-γGlu-CO(CH2)16CO2H)-Ser-Lys-Tyr-Leu-Asp-Aib-Arg-Arg-Ala-Gln-Asp-Phe-Val-Gln-Trp-Leu-Nle-Asn-Thr-Gly-Gly-Pro-Ser-Ser-Gly-Ala-Pro-Pro-Pro-Ser-NH2 (H[dS]QGTFTSDK([PEG2′-PEG2′-γGlu-C18 diacid])SKYLD[Aib]RRAQDFVQWL[Nle]NTGGPSSGAPPPS-NH2) [Compound 48]
Second: His-(D-Ser)-Gln-Gly-Thr-Phe-Thr-Ser-Asp-Lys(PEG)-PEG2-γGlu-CO(CH2)14CH3)-Ser-Lys-Tyr-Leu-Asp-Aib-Arg-Arg-Ala-Gln-Asp-Phe-Val-Gln-Trp-Leu-Met-Asn-Thr-Gly-Gly-Pro-Ser-Ser-Gly-Ala-Pro-Pro-Pro-Ser-NH2 (H[dS]QGTFTSDKSKYLD[Aib]RRAQDFVQWLMNTGGPSSGAPPPS-NH2; not fully specified (residue 10); printed as His-(D-Ser)-Gln-Gly-Thr-Phe-Thr-Ser-Asp-Lys(PEG2-PEG2-γGln-CO(CH2)14CH3)-Ser-Lys-Tyr-Leu-Asp-Aib-Arg-Arg-Ala-Gln-Asp-Phe-Val-Gln-Trp-Leu-Met-Asn-Thr-Gly-Gly-Pro-Ser-Ser-Gly-Ala-Pro-Pro-Pro-Ser-NH2; also: first PEG unit on Lys10 of unstated size) [Compound 4]
The “Relative expression of α-SMA (α-SMA/β-actin, %)” value of the first is higher: 43.25% for the first, 33.50% for the second.

Going from “His-(D-Ser)-Gln-Gly-Thr-Phe-Thr-Ser-Asp-Lys(PEG)-PEG2-γGlu-CO(CH2)16CO2H)-Ser-Lys-Tyr-Leu-Asp-Aib-Arg-Arg-Ala-Gln-Asp-Phe-Val-Gln-Trp-Leu-Met-Asn-Thr-Gly-Gly-Pro-Ser-Ser-Gly-Ala-Pro-Pro-Pro-Ser-NH2 (H[dS]QGTFTSDKSKYLD[Aib]RRAQDFVQWLMNTGGPSSGAPPPS-NH2; not fully specified (residue 10); also: first PEG unit on Lys10 of unstated size) [Compound 5]” to “His-(D-Ser)-Gln-Gly-Thr-Phe-Thr-Ser-Asp-Tyr-Ser-Lys(PEG2-PEG2-CO(CH2)14CH3)-Lys-Leu-Asp-Aib-Arg-Arg-Ala-Gln-Asp-Phe-Val-Gln-Trp-Leu-Met-Asn-Thr-Gly-Gly-Pro-Ser-Ser-Gly-Ala-Pro-Pro-Pro-Ser-NH2 (H[dS]QGTFTSDYSK([PEG2′-PEG2′-Palmitoyl])KLD[Aib]RRAQDFVQWLMNTGGPSSGAPPPS-NH2) [Compound 9]”, the “Relative expression of α-SMA (α-SMA/β-actin, %)” value rises from 36.04% to 41.86%.

Going from “His-(D-Ser)-Gln-Gly-Thr-Phe-Thr-Ser-Asp-Tyr-Ser-Lys(PEG2-PEG2-CO(CH2)16CO2H)-Lys-Leu-Asp-Aib-Arg-Arg-Ala-Gln-Asp-Phe-Val-Gln-Trp-Leu-Met-Asn-Thr-Gly-Gly-Pro-Ser-Ser-Gly-Ala-Pro-Pro-Pro-Ser-NH2 (H[dS]QGTFTSDYSK([PEG2′-PEG2′-C18 diacid])KLD[Aib]RRAQDFVQWLMNTGGPSSGAPPPS-NH2) [Compound 2]” to “His-(D-Ser)-Gln-Gly-Thr-Phe-Thr-Ser-Asp-Tyr-Ser-Lys(PEG2-PEG2-γGlu-CO(CH2)14CH3)-Lys-Leu-Asp-Aib-Arg-Arg-Ala-Gln-Asp-Phe-Val-Gln-Trp-Leu-Met-Asn-Thr-Gly-Gly-Pro-Ser-Ser-Gly-Ala-Pro-Pro-Pro-Ser-NH2 (H[dS]QGTFTSDYSK([PEG2′-PEG2′-γGlu-Palmitoyl])KLD[Aib]RRAQDFVQWLMNTGGPSSGAPPPS-NH2) [Compound 1]”, the “Relative expression of α-SMA (α-SMA/β-actin, %)” value rises from 41.62% to 63.5%.

Compared with “His-(D-Ser)-Gln-Gly-Thr-Phe-Thr-Ser-Asp-Tyr-Ser-Lys-Tyr-Leu-Asp-Aib-Lys(PEG2-PEG2-γGlu-CO(CH2)14CH3)-Arg-Ala-Gln-Asp-Phe-Val-Gln-Trp-Leu-Met-Asn-Thr-Gly-Gly-Pro-Ser-Ser-Gly-Ala-Pro-Pro-Pro-Ser-NH2 (H[dS]QGTFTSDYSKYLD[Aib]K([PEG2′-PEG2′-γGlu-Palmitoyl])RAQDFVQWLMNTGGPSSGAPPPS-NH2) [Compound 33]”, “His-(D-Ser)-Gln-Gly-Thr-Phe-Thr-Ser-Asp-Tyr-Ser-Lys-Tyr-Leu-Asp-Glu-Lys-Ala-Ala-Lys(PEG2-PEG2-γGlu-CO(CH2)14CH3)-Glu-Phe-Ile-Glu-Trp-Leu-Leu-Arg-Ala-NH2 (H[dS]QGTFTSDYSKYLDEKAAK([PEG2′-PEG2′-γGlu-Palmitoyl])EFIEWLLRA-NH2) [Compound 23]” is higher in “Relative expression of α-SMA (α-SMA/β-actin, %)” value: 35.45% for the first, 45.91% for the second.

First: His-(D-Ser)-Gln-Gly-Thr-Phe-Thr-Ser-Asp-Tyr-Ser-Lys-Tyr-Leu-Asp-Glu-Lys-Ala-Ala-Lys(PEG2-PEG2-γGlu-CO(CH2)14CH3)-Glu-Phe-Ile-Glu-Trp-Leu-Leu-Asn-Gly-Gly-Pro-Ser-Ser-Gly-Ala-Pro-Pro-Pro-Ser-NH2 (H[dS]QGTFTSDYSKYLDEKAAK([PEG2′-PEG2′-γGlu-Palmitoyl])EFIEWLLNGGPSSGAPPPS-NH2) [Compound 29]
Second: His-(D-Ser)-Gln-Gly-Thr-Phe-Thr-Ser-Asp-Tyr-Ser-Lys-Tyr-Leu-Asp-Glu-Lys-Ala-Ala-Lys(PEG2-PEG2-γGlu-CO(CH2)14CO2H)-Glu-Phe-Ile-Glu-Trp-Leu-Leu-Asn-Gly-Gly-Pro-Ser-Ser-Gly-Ala-Pro-Pro-Pro-Ser-NH2 (H[dS]QGTFTSDYSKYLDEKAAK([PEG2′-PEG2′-γGlu-C16 diacid])EFIEWLLNGGPSSGAPPPS-NH2) [Compound 27]
The “Relative expression of α-SMA (α-SMA/β-actin, %)” value of the first is higher: 49.36% for the first, 32.34% for the second.

Compared with “His-(D-Ser)-Gln-Gly-Thr-Phe-Thr-Ser-Asp-Tyr-Ser-Lys-Tyr-Leu-Asp-Glu-Lys-Ala-Ala-Lys(PEG2-PEG2-γGlu-CO(CH2)16CH3)-Glu-Phe-Ile-Glu-Trp-Leu-Leu-Arg-Ala-NH2 (H[dS]QGTFTSDYSKYLDEKAAK([PEG2′-PEG2′-γGlu-Stearoyl])EFIEWLLRA-NH2) [Compound 24]”, “His-(D-Ser)-Gln-Gly-Thr-Phe-Thr-Ser-Asp-Tyr-Ser-Lys-Tyr-Leu-Asp-Glu-Lys-Ala-Ala-Lys(PEG2-PEG2-γGlu-CO(CH2)16CH3)-Glu-Phe-Ile-Glu-Trp-Leu-Leu-Asn-Gly-Gly-Pro-Ser-Ser-Gly-Ala-Pro-Pro-Pro-Ser-NH2 (H[dS]QGTFTSDYSKYLDEKAAK([PEG2′-PEG2′-γGlu-Stearoyl])EFIEWLLNGGPSSGAPPPS-NH2) [Compound 28]” is higher in “Relative expression of α-SMA (α-SMA/β-actin, %)” value: 32.42% for the first, 37.62% for the second.

With “His-(D-Ser)-Gln-Gly-Thr-Phe-Thr-Ser-Asp-Tyr-Ser-Lys-Tyr-Leu-Asp-Glu-Lys-Ala-Ala-Lys(PEG2-PEG2-γGlu-CO(CH2)16CO2H)-Glu-Phe-Ile-Glu-Trp-Leu-Leu-Arg-Ala-NH2 (H[dS]QGTFTSDYSKYLDEKAAK([PEG2′-PEG2′-γGlu-C18 diacid])EFIEWLLRA-NH2) [Compound 18]” the “Relative expression of α-SMA (α-SMA/β-actin, %)” value was 45.60%.

From patent US11419918B2, “Treatment of biliary cirrhosis based on oxyntomodulin analogue GLP-1R/GCGR dual-target agonist peptide” (Shenzhen Turier Biotech Co., Ltd., priority 2017, dated 2022)
